{"source": "patent US20090118286A1", "about": "“Heterobicyclic Acrylamides” (Bayer Cropscience AG, priority 2005, published 2009)", "data": [{"assay": "log P determination by HPLC (EEC Directive 79/831 Annex V.A8, gradient method)", "format": "physicochemical", "details": "not given", "values": [{"molecule": "Cc1ccccc1-c1nc2sc(C(F)(F)F)nn2c1/C=C/C(=O)NC1CCCCC1", "note": "[Example 0236]", "Physical data: log P": 4.03}, {"molecule": "Cc1ccccc1-c1nc2sc(C(F)(F)F)nn2c1/C=C/C(=O)N1CCOCC1", "note": "[Example 0294]", "Physical data: log P": 2.91}, {"molecule": "O=C(/C=C/c1c(-c2cccc(Cl)c2)nc2sc(C(F)(F)F)nn12)NCC1CC1", "note": "[Example 0086]", "Physical data (logP)": 3.81}, {"molecule": "CC(C)C(NC(=O)C=Cc1c(-c2cccnc2Cl)nc2sc(C(F)(F)F)nn12)C(F)(F)F", "note": "(stereo not drawn) [Example 0949]", "Physical data: logP": 3.48}, {"molecule": "CC(C)C(NC(=O)C=Cc1c(-c2ccccc2Cl)nc2sc(C(F)(F)C(F)(F)F)nn12)C(F)(F)F", "note": "(stereo not drawn) [Example 0962]", "Physical data: logP": 4.62}, {"molecule": "O=C(O)/C=C/c1c(-c2cccc(C(F)(F)F)c2)nc2sc(C(F)(F)F)nn12", "note": "[VA-7]", "Physical data (logP)": 3.33}, {"molecule": "CC(C)C(NC(=O)C=Cc1c(-c2ccc(F)cc2Cl)nc2sc(C(F)(F)C(F)(F)F)nn12)C(F)(F)F", "note": "(stereo not drawn) [Example 0975]", "Physical data: logP": 4.76}, {"molecule": "O=C(/C=C/c1c(-c2ccc(F)cc2Cl)nc2sc(C(F)(F)F)nn12)N1CCCC(C(F)(F)F)C1", "note": "(stereo not drawn) [Example 0648]", "Physical data: logP": 4.28}, {"molecule": "CC(C)NC(=O)/C=C/c1c(-c2ccccc2Cl)nc2sc(-c3ccc(C(F)(F)F)cc3)nn12", "note": "[Example 0846]", "Physical data: logP": 3.96}, {"molecule": "CC(NC(=O)/C=C/c1c(-c2ccc(Cl)cc2)nc2sc(C(F)(F)F)nn12)c1ccccc1", "note": "(stereo not drawn) [Example 0038]", "Physical data (logP)": 4.32}, {"molecule": "Cc1csc2nc(-c3ccccc3Cl)c(/C=C/C(=O)NC(C(C)C)C(F)(F)F)n12", "note": "(stereo not drawn) [Example 0884]", "Physical data: logP": 3.11}, {"molecule": "CC(NC(=O)/C=C/c1c(-c2ccc(Cl)cc2)nc2sc(C(F)(F)F)nn12)c1ccccn1", "note": "(stereo not drawn) [Example 0052]", "Physical data (logP)": 2.77}, {"molecule": "CC(C)(C)c1nn2c(/C=C/C(=O)Nc3ccc(Cl)cc3)c(-c3ccccc3Cl)nc2s1", "note": "[Example 0811]", "Physical data: logP": 4.72}, {"molecule": "Cc1ccccc1-c1nc2sc(C(F)(F)F)nn2c1/C=C/C(=O)O", "note": "[VA-5]", "Physical data (logP)": 2.77}, {"molecule": "O=Cc1c(-c2ccc(Cl)nc2)nc2sc(C(F)(F)F)nn12", "note": "[IVA123]", "Physical data (logP)": 2.54}, {"molecule": "O=Cc1c(-c2cncc(Br)c2)nc2sc(C(F)(F)F)nn12", "note": "[IVA115]", "Physical data (logP)": 2.62}, {"molecule": "CC(COc1ccccc1)NC(=O)/C=C/c1c(-c2ccc(Cl)cc2Cl)nc2sc(C(F)(F)F)nn12", "note": "(stereo not drawn) [Example 0546]", "Physical data: log P": 4.56}, {"molecule": "COCC(C)NC(=O)/C=C/c1c(-c2cccc(Cl)c2)nc2sc(C(F)(F)F)nn12", "note": "(stereo not drawn) [Example 0089]", "Physical data (logP)": 3.46}, {"molecule": "C[Si](C)(C)CNC(=O)/C=C/c1c(-c2ccc(F)cc2Cl)nc2sc(C(F)(F)F)nn12", "note": "[Example 0914]", "Physical data: logP": 4.10}, {"molecule": "O=C(O)/C=C/c1c(-c2ccccc2Cl)nc2sc(C(F)(F)C(F)(F)F)nn12", "note": "[VA113]", "Physical data (logP)": 3.19}, {"molecule": "O=C(O)/C=C/c1c(-c2ccc(Oc3ccc(Cl)cc3)cc2)nc2sc(C(F)(F)F)nn12", "note": "[VA124]", "Physical data (logP)": 4.22}, {"molecule": "O=C(O)/C=C/c1c(-c2nccs2)nc2sc(C(F)(F)F)nn12", "note": "[VA115]", "Physical data (logP)": 2.48}, {"molecule": "O=Cc1c(-c2ccc(Oc3ccc(Cl)cc3)cc2)nc2sc(C(F)(F)F)nn12", "note": "[IVA122]", "Physical data (logP)": 4.56}, {"molecule": "Cc1ccccc1-c1nc2sc(C(F)(F)F)nn2c1/C=C/C(=O)NC1CCC1", "note": "[Example 0234]", "Physical data: log P": 3.41}, {"molecule": "COCc1nn2c(/C=C/C(=O)NC3CC3)c(-c3ccccc3Cl)nc2s1", "note": "[Example 0829]", "Physical data: logP": 2.2}, {"molecule": "O=C(C=Cc1c(-c2ccc(F)cc2Cl)nc2sc(C(F)(F)F)nn12)NC(CC(F)(F)F)c1ccccc1", "note": "(stereo not drawn) [Example 0609]", "Physical data: log P": 4.25}, {"molecule": "NC(=O)/C=C/c1c(-c2ccc(Cl)cc2)nc2sc(C(F)(F)F)nn12", "note": "[Example 0004]", "Physical data (logP)": 2.62}, {"molecule": "COc1ccc(-c2nc3sc(C(F)(F)F)nn3c2/C=C/C(=O)NC(C)C(C)C)cc1OC", "note": "(stereo not drawn) [Example 0668]", "Physical data: logP": 3.41}, {"molecule": "O=C(/C=C/c1c(-c2cccc(C(F)(F)F)c2)nc2sc(C(F)(F)F)nn12)N1CCOCC1", "note": "[Example 0436]", "Physical data: log P": 3.55}, {"molecule": "Cc1cn2c(C=CC(=O)NC(C(C)C)C(F)(F)F)c(-c3ccccc3Cl)nc2s1", "note": "(stereo not drawn) [Example 0862]", "Physical data: logP": 3.45}, {"molecule": "COc1ccc(-c2nc3sc(C(F)(F)F)nn3c2/C=C/C(=O)NC(C)c2ccccn2)cc1OC", "note": "(stereo not drawn) [Example 0698]", "Physical data: logP": 2.16}, {"molecule": "O=C(/C=C/c1c(-c2ccc(Cl)cc2)nc2sc(C(F)(F)F)nn12)NC1CC1", "note": "[Example 0011]", "Physical data (logP)": 3.31}, {"molecule": "CCCC(C)NC(=O)/C=C/c1c(-c2ccc(OC)c(OC)c2)nc2sc(C(F)(F)F)nn12", "note": "(stereo not drawn) [Example 0662]", "Physical data: logP": 3.5}, {"molecule": "CC(C)(C)NC(=O)/C=C/c1c(-c2ccccc2Cl)nc2sc(C(C)(C)C)nn12", "note": "[Example 0801]", "Physical data: logP": 3.95}, {"molecule": "Cc1cn2c(/C=C/C(=O)NC(C)C)c(-c3ccccc3Cl)nc2s1", "note": "[Example 0868]", "Physical data: logP": 2.35}, {"molecule": "COCc1nn2c(/C=C/C(=O)NC3CCCC3)c(-c3ccccc3Cl)nc2s1", "note": "[Example 0831]", "Physical data: logP": 2.8}, {"molecule": "O=C(/C=C/c1c(-c2ccc(F)cc2Cl)nc2sc(C(F)(F)F)nn12)NC1(C(F)(F)F)CC1", "note": "[Example 0913]", "Physical data: logP": 3.71}, {"molecule": "CCC(C)NC(=O)/C=C/c1c(-c2cccc(Cl)c2)nc2sc(C(F)(F)F)nn12", "note": "(stereo not drawn) [Example 0087]", "Physical data (logP)": 3.99}, {"molecule": "CCN(C)C(=O)/C=C/c1c(-c2ccc(Cl)cc2Cl)nc2sc(C(F)(F)F)nn12", "note": "[Example 0569]", "Physical data: log P": 3.82}, {"molecule": "CC(COc1ccccc1)NC(=O)/C=C/c1c(-c2cccc(C(F)(F)F)c2)nc2sc(C(F)(F)F)nn12", "note": "(stereo not drawn) [Example 0407]", "Physical data: log P": 4.67}, {"molecule": "CCCC(C)NC(=O)/C=C/c1c(-c2cccc(Cl)c2)nc2sc(C(F)(F)F)nn12", "note": "(stereo not drawn) [Example 0088]", "Physical data (logP)": 4.37}, {"molecule": "O=C(O)/C=C/c1c(-c2ccc(OCc3ccccc3)cc2)nc2sc(C(F)(F)F)nn12", "note": "[VA122]", "Physical data (logP)": 3.73}, {"molecule": "O=C(/C=C/c1c(-c2cccc(C(F)(F)F)c2)nc2sc(C(F)(F)F)nn12)NC1CCCCC1", "note": "[Example 0378]", "Physical data: log P": 4.61}, {"molecule": "Cc1cn2c(/C=C/C(=O)NCCC(C)C)c(-c3ccccc3Cl)nc2s1", "note": "[Example 0864]", "Physical data: logP": 3}, {"molecule": "O=C(/C=C/c1c(-c2ccccc2Cl)nc2sc(C(F)(F)F)nn12)NC1CCCCC1", "note": "[Example 0155]", "Physical data (logP)": 3.9}, {"molecule": "CC(ONC(=O)/C=C/c1c(-c2ccccc2Cl)nc2sc(C(F)(F)F)nn12)c1ccccc1", "note": "(racemic) [Example 0213]", "Physical data (logP)": 3.72}, {"molecule": "CCN(C)C(=O)/C=C/c1c(-c2cccc(C(F)(F)F)c2)nc2sc(C(F)(F)F)nn12", "note": "[Example 0430]", "Physical data: log P": 4.05}, {"molecule": "Cc1csc2nc(-c3ccccc3Cl)c(/C=C/C(=O)NCC(C)C)n12", "note": "[Example 0882]", "Physical data: logP": 2.4}, {"molecule": "Cc1csc2nc(-c3ccccc3Cl)c(/C=C/C(=O)Nc3ccc(OC(F)(F)F)cc3)n12", "note": "[Example 0900]", "Physical data: logP": 3.66}, {"molecule": "C=CCN(C)C(=O)/C=C/c1c(-c2ccc(Cl)cc2Cl)nc2sc(C(F)(F)F)nn12", "note": "[Example 0570]", "Physical data: log P": 4.0}, {"molecule": "CCC(CC)NC(=O)/C=C/c1c(-c2ccc(Cl)cc2Cl)nc2sc(C(F)(F)F)nn12", "note": "[Example 0567]", "Physical data: log P": 4.32}, {"molecule": "O=C(O)/C=C/c1c(-c2ccc(Cl)nc2)nc2sc(C(F)(F)F)nn12", "note": "[VA125]", "Physical data (logP)": 2.42}, {"molecule": "O=C(O)/C=C/c1c(-c2ccc(-c3ccccc3)cc2)nc2sc(C(F)(F)F)nn12", "note": "[VA120]", "Physical data (logP)": 3.77}, {"molecule": "CC(C)(C)c1nn2c(/C=C/C(=O)NCC(F)(F)C(F)(F)C(F)(F)F)c(-c3ccccc3Cl)nc2s1", "note": "[Example 0815]", "Physical data: logP": 4.48}, {"molecule": "COc1ccc(-c2nc3sc(C(F)(F)F)nn3c2/C=C/C(=O)NC(C)C(F)(F)F)cc1OC", "note": "(stereo not drawn) [Example 0669]", "Physical data: logP": 3.29}, {"molecule": "COCC(C)NC(=O)/C=C/c1c(-c2ccc(Cl)cc2)nc2sc(C(F)(F)F)nn12", "note": "(stereo not drawn) [Example 0018]", "Physical data (logP)": 4.27}, {"molecule": "Cc1csc2nc(-c3ccccc3Cl)c(/C=C/C(=O)NC(C)C(C)(C)C)n12", "note": "(stereo not drawn) [Example 0892]", "Physical data: logP": 2.84}, {"molecule": "CCCC(C)NC(=O)/C=C/c1c(-c2ccc(F)cc2)nc2sc(C(F)(F)F)nn12", "note": "(stereo not drawn) [Example 0310]", "Physical data: log P": 3.9}, {"molecule": "CC(ONC(=O)/C=C/c1c(-c2ccc(Cl)cc2)nc2sc(C(F)(F)F)nn12)c1ccccc1", "note": "(stereo not drawn) [Example 0062]", "Physical data (logP)": 4.18}, {"molecule": "O=C(/C=C/c1c(-c2ccccc2F)nc2sc(C(F)(F)F)nn12)N1CCOCC1", "note": "[Example 0507]", "Physical data: log P": 2.7}, {"molecule": "CC(C)C(C)NC(=O)/C=C/c1c(-c2ccc(Cl)cc2)nc2sc(C(F)(F)F)nn12", "note": "(stereo not drawn) [Example 0023]", "Physical data (logP)": 4.25}, {"molecule": "CCC(C)NC(=O)/C=C/c1c(-c2ccc(F)cc2)nc2sc(C(F)(F)F)nn12", "note": "(stereo not drawn) [Example 0309]", "Physical data: log P": 3.55}, {"molecule": "O=C(/C=C/c1c(-c2ccccc2F)nc2sc(C(F)(F)F)nn12)N1CCCCC1", "note": "[Example 0506]", "Physical data: log P": 3.59}, {"molecule": "CC(C)NC(=O)/C=C/c1c(-c2cccc(Cl)c2)nc2sc(C(F)(F)F)nn12", "note": "[Example 0078]", "Physical data (logP)": 3.67}, {"molecule": "CC(C)CN(C)C(=O)/C=C/c1c(-c2cccc(Cl)c2)nc2sc(C(F)(F)F)nn12", "note": "[Example 0138]", "Physical data (logP)": 4.63}]}, {"assay": "log P determination by HPLC (EEC Directive 79/831 Annex V.A8, gradient method)", "format": "physicochemical", "details": "HPLC gradient method, acetonitrile/0.1% strength aqueous phosphoric acid or formic acid; preparation examples; read-out: log P", "values": [{"molecule": "C[C@@H](CS(C)(=O)=O)NC(=O)/C=C/c1c(-c2ccc(Cl)cc2Cl)nc2sc(C(F)(F)F)nn12", "note": "[Example 0003, (2E)-3-[6-(2,4-Dichlorophenyl)-2-(trifluoromethyl)imidazo[2,1-b][1,3,4]thiadiazol-5-yl]-N-[(1S)-1-methyl-2-(methylsulphonyl)ethyl]acrylamide]", "chromatographic logP": 3.03}]}]}
